Data on 5 compounds can be found in paper PMC10709440, “High-throughput ligand profile characterization in novel cell lines expressing seven heterologous insect olfactory receptors for the detection of volatile plant biomarkers” (Scientific Reports, 2023).

The EC50 is the concentration giving half of the maximal effect.

Several values for one entry are separate records, joined by “and”; a condition that tells them apart may be missing. Identical values can stand only once. Like-named read-outs stand apart in the source and are kept apart here.

For one assay, the target named is T1, Drosophila OR13a (Drosophila melanogaster, UniProt Q9VXL0).
T1 construct: expressed in transfected cells
T1 sequence (Q9VXL0 1-418): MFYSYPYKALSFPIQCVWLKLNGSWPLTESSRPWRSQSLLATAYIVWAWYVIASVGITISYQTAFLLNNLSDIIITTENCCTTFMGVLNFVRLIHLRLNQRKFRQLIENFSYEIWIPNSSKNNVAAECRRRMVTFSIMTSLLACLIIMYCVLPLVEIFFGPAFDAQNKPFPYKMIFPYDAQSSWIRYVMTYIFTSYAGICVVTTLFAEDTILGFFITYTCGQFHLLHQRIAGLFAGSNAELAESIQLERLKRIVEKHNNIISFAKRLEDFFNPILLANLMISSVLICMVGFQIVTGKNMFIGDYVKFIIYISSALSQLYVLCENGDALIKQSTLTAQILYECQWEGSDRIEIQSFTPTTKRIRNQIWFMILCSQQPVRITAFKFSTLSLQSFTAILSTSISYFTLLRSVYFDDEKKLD
T1 sequence (Q9VNB5 1-486 partner): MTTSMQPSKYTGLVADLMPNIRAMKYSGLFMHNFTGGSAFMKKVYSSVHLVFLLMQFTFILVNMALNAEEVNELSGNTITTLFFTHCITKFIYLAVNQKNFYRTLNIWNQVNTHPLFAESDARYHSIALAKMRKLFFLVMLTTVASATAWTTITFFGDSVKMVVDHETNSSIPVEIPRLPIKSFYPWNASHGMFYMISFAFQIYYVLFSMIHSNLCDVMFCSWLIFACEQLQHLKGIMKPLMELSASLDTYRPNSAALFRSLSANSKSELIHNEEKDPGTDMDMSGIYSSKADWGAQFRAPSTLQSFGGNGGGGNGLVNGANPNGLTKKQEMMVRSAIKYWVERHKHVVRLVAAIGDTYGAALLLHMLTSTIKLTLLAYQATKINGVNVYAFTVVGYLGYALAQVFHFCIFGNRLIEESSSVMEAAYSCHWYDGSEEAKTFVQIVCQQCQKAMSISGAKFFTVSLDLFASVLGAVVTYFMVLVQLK
Briefly: Calcium ion fluorescence (GCaMP6) assay, OR13a stable HEK293 cell line. Type of assay: cell-based. Particulars: for OR13a response (VUAA1-normalized) at 1 μM / OR13a response (VUAA1-normalized) at 10 μM / OR13a response (VUAA1-normalized) at 100 μM: OR13a cell line; for OR13a response (VUAA1-normalized) at 1 μM: VOC concentration 1 μM; for OR13a response (VUAA1-normalized) at 10 μM: VOC concentration 10 μM; for OR13a response (VUAA1-normalized) at 100 μM: VOC concentration 100 μM; for dose-response, AVERAGE response: N 3. In short, it runs like this: (§1)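 Responses are VUAA1-normalized ΔF: each VOC-evoked calcium signal, (FMAX−F0)/F0 over 30 s after injection, divided by the same line's mean 50 µM VUAA1 response. Cells were doxycycline-induced HEK293 with GCaMP6 and the cognate Drosophila OR, in HEPES buffer pH 7.3; ligands tested 0.01–100 μM.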

For a further assay, the target named is T2, Drosophila OR49b (Drosophila melanogaster, UniProt Q9V6H2).
T2 construct: expressed in transfected cells
T2 sequence (Q9V6H2 1-375): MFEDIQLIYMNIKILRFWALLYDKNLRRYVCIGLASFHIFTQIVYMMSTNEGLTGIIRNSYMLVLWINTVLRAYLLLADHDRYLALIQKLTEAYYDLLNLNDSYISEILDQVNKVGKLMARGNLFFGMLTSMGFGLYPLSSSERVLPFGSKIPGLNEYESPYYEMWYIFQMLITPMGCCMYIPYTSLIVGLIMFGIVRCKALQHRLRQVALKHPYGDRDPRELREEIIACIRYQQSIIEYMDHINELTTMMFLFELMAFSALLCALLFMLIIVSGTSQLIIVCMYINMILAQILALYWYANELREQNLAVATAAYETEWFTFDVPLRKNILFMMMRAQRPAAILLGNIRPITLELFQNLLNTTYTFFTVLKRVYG
T2 sequence (Q9VNB5 1-486 partner): T1 sequence (Q9VNB5 1-486 partner)
In words: cell-based. Particulars: for OR49b response (VUAA1-normalized) at 1 μM / OR49b response (VUAA1-normalized) at 10 μM / OR49b response (VUAA1-normalized) at 100 μM / Average response: OR49b cell line; for OR49b response (VUAA1-normalized) at 1 μM / activation at 1 µM: VOC concentration 1 μM; for OR49b response (VUAA1-normalized) at 10 μM / activation at 10 µM: VOC concentration 10 μM; for OR49b response (VUAA1-normalized) at 100 μM / activation at 100 µM: VOC concentration 100 μM; for Average response: mean of biological replicates; for activation at 1 µM / activation at 10 µM / activation at 100 µM: HEK293, read-out: OR49b response (VUAA1-normalized response). In short, it runs like this: as §1

Setting [1] is: HEK293, read-out: OR13a Average response (VUAA1-normalized), 1 μM VOC, 50 μM VUAA1 = 1, responses not exceeding 0.05 considered 0.
Setting [2] is: HEK293, read-out: OR13a Average response (VUAA1-normalized), 10 μM VOC, 50 μM VUAA1 = 1, responses not exceeding 0.05 considered 0.
Where [3] appears, read: HEK293, read-out: OR13a Average response (VUAA1-normalized), 100 μM VOC, 50 μM VUAA1 = 1, responses not exceeding 0.05 considered 0.
[4] abbreviates: ligand concentration 1 (unit not given), threshold 0.05, below shown as 0.
The mark [5] stands for this setting: ligand concentration 10 (unit not given), threshold 0.05, below shown as 0.
The mark [6] stands for this setting: ligand concentration 100 (unit not given), threshold 0.05, below shown as 0.
Setting [7] is: HEK293, read-out: OR13a response (VUAA1-normalized response), VOC concentration 1 μM.
[8] abbreviates: HEK293, read-out: OR13a response (VUAA1-normalized response), VOC concentration 10 μM.
Where [9] appears, read: HEK293, read-out: OR13a response (VUAA1-normalized response), VOC concentration 100 μM.
Setting [10] is: the 13th table, VOC concentration 2.5.
Where [11] appears, read: the 13th table, VOC concentration 5.
[12] abbreviates: the 13th table, VOC concentration 25.
Setting [13] is: the 13th table, VOC concentration 50.
Where [14] appears, read: the 13th table, VOC concentration 100.

`OCCc1ccccc1` [phenethyl alcohol]: the activation at 1 µM on Drosophila OR13a (setting [1]) was found to be 6.58%. In addition, on Drosophila OR13a (setting [2]), the activation at 10 µM was found to be 6%. In addition, the activation at 100 µM on Drosophila OR13a (setting [3]) came out at 3%. Further, the “OR13a response (VUAA1-normalized) at 1 μM” value on Drosophila OR13a was determined as 0.0658. Besides, the “OR13a response (VUAA1-normalized) at 10 μM” value on Drosophila OR13a is listed as 0.06. Further, the “OR13a response (VUAA1-normalized) at 100 μM” value at Drosophila OR13a came out at 0.00. The “DF norm AVERAGE OR13a” value on Drosophila OR13a (setting [4]) stood at 0.06578; on Drosophila OR13a (setting [5]), 0.05738; at Drosophila OR13a (setting [6]) it was 0. Also, on Drosophila OR49b, the “OR49b response (VUAA1-normalized) at 1 μM” value amounted to 0.00. Further, the “OR49b response (VUAA1-normalized) at 10 μM” value at Drosophila OR49b stood at 0.00. Besides, on Drosophila OR49b, the “OR49b response (VUAA1-normalized) at 100 μM” value amounted to 0.09. The Average response on Drosophila OR49b (odorant cc. 1 µM) amounted to 0.0257; at Drosophila OR49b (odorant cc. 10 µM), 0.00; at Drosophila OR49b (odorant cc. 100 µM), 0.09. Also, the “DF norm AVERAGE OR49b” value on Drosophila OR49b (setting [4]) was 0; at Drosophila OR49b (setting [5]), 0; on Drosophila OR49b (setting [6]), 0.09318.
As for `CCOC(=O)CC` [ethyl propionate], the activation at 1 µM at Drosophila OR13a (setting [1]), on Drosophila OR13a (setting [7]) and at Drosophila OR49b was 0% throughout. The activation at 10 µM at Drosophila OR13a (setting [2]), at Drosophila OR13a (setting [8]) and on Drosophila OR49b was 0% in each case. Moreover, the activation at 100 µM at Drosophila OR13a (setting [3]), on Drosophila OR13a (setting [9]) and on Drosophila OR49b was 0% in each case. Besides, the “DF norm AVERAGE OR13a” value at Drosophila OR13a (setting [4]), on Drosophila OR13a (setting [5]) and at Drosophila OR13a (setting [6]) was 0 each time. Moreover, the figures for the Average response at Drosophila OR49b (odorant cc. 1 µM), at Drosophila OR49b (odorant cc. 10 µM) and on Drosophila OR49b (odorant cc. 100 µM) were 0.00, 0.00 and 0.0428, respectively. Moreover, the “DF norm AVERAGE OR49b” value at Drosophila OR49b (setting [4]), at Drosophila OR49b (setting [5]) and at Drosophila OR49b (setting [6]) was 0 each time.
For the compound `C=CC(O)C/C=C\CC` (stereo not shown) [(5Z)-octa-1,5-dien-3-ol], the EC50 at Drosophila OR13a (EC50, fitted average curve, the 13th table, fit to the average curve, n 0.854956) is 7.19 µM; at Drosophila OR13a (EC50, fitted parameter per biological replicate, the 13th table, OR13a D-R (5Z)-octa-1,5-dien-3-ol, individual replicate fits, MIN 0, n 1) it was 9.97 µM and 3 µM and 5.85 µM; on Drosophila OR13a (EC50, fitted parameter per biological replicate, the 13th table, individual replicate fits), 9.97 µM and 3 µM and 5.85 µM. For the same compound, the activation at 1 µM at Drosophila OR13a (setting [1]), at Drosophila OR13a (setting [7]) and at Drosophila OR49b was 0% throughout. Further, the activation at 10 µM at Drosophila OR13a (setting [2]) was 15%; at Drosophila OR13a (setting [8]), 15%; on Drosophila OR49b it was 0%. Further, the activation at 100 µM on Drosophila OR13a (setting [3]) was 37%; at Drosophila OR13a (setting [9]), 37%; at Drosophila OR49b it was 0%. Further, the “DF norm AVERAGE OR13a” value was 0 on Drosophila OR13a (concentration 1, normalized fluorescence change, values below 0.05 threshold given as 0); 0.1531 on Drosophila OR13a (concentration 10, normalized fluorescence change, values below 0.05 threshold given as 0); 0.3701 at Drosophila OR13a (concentration 100, normalized fluorescence change, values below 0.05 threshold given as 0). Further, the “dose-response, response per biological replicate” value was 0 and 0.07532 and 0.2134 on Drosophila OR13a (setting [10]); 0.1122 and 0.07908 and 0.2962 on Drosophila OR13a (setting [11]); 0.1336 and 0.1252 and 0.4462 at Drosophila OR13a (setting [12]); 0.1449 and 0.1487 and 0.5376 on Drosophila OR13a (setting [13]); 0.2093 and 0.133 and 0.6441 on Drosophila OR13a (setting [14]). For the same compound, the “dose-response, AVERAGE response” value on Drosophila OR13a (setting [10]) is given as 0.09623; at Drosophila OR13a (setting [11]), 0.1625; on Drosophila OR13a (setting [12]) it was 0.235; at Drosophila OR13a (setting [13]) it was 0.2771; on Drosophila OR13a (setting [14]), 0.3288. Besides, the “MAX, fitted average curve” value on Drosophila OR13a (the 13th table, fit to the average curve, n 0.854956) is 0.3433. Further, on Drosophila OR13a (the 13th table, individual replicate fits), the “MAX, fitted parameter per biological replicate” value is 0.2031 and 0.1439 and 0.6228 and 0.37. The “DF norm AVERAGE OR49b” value on Drosophila OR49b worked out at 0. Also, the Average response amounted to 0.00 on Drosophila OR49b (odorant cc. 1 µM), 0.04 at Drosophila OR49b (odorant cc. 10 µM) and 0.00 on Drosophila OR49b (odorant cc. 100 µM).
Regarding `CC/C=C\CCO` [Z-3-hexenol], on Drosophila OR13a, the “OR13a response (VUAA1-normalized) at 1 μM” value is 0.00, the “OR13a response (VUAA1-normalized) at 10 μM” value is given as 0.06 and the “OR13a response (VUAA1-normalized) at 100 μM” value is 0.00. For the same compound, on Drosophila OR49b, the “OR49b response (VUAA1-normalized) at 1 μM” value worked out at 0.00, the “OR49b response (VUAA1-normalized) at 10 μM” value was 0.00 and the “OR49b response (VUAA1-normalized) at 100 μM” value worked out at 0.00.
With `C=C1CCC2CC1C2(C)C` (stereo not drawn) [beta-pinene], the activation at 1 µM was found to be 8% on Drosophila OR13a (setting [1]), 8% on Drosophila OR13a (setting [7]) and 6.58% on Drosophila OR49b. In addition, the results for the activation at 10 µM on Drosophila OR13a (setting [2]), at Drosophila OR13a (setting [8]) and at Drosophila OR49b were 0%, 0% and 5%, respectively. Besides, the figures for the activation at 100 µM on Drosophila OR13a (setting [3]), on Drosophila OR13a (setting [9]) and on Drosophila OR49b were 3.25%, 0% and 0%, respectively. The “DF norm AVERAGE OR13a” value is given as 0.08064 at Drosophila OR13a (setting [4]), 0 at Drosophila OR13a (setting [5]) and 0 on Drosophila OR13a (setting [6]). Moreover, the Average response on Drosophila OR49b (odorant cc. 1 µM) is 0.0658; at Drosophila OR49b (odorant cc. 10 µM) it was 0.05; on Drosophila OR49b (odorant cc. 100 µM) it was 0.00. The figures for the “DF norm AVERAGE OR49b” value on Drosophila OR49b (setting [4]), on Drosophila OR49b (setting [5]) and at Drosophila OR49b (setting [6]) were 0.06581, 0.05055 and 0, respectively.
